From ChEMBL document CHEMBL1156829 (Proc Natl Acad Sci U S A, 2008)

How the values were obtained:
Plasmodium falciparum [1] = assay: NOVARTIS: Inhibition of Plasmodium falciparum 3D7 (drug-susceptible) proliferation in erythrocyte-based infection assay; format: functional, organism-based; conditions: Plasmodium falciparum, 3D7
[2] = NOVARTIS: Cytotoxicity against human hepatocellular carcinoma cell line (Huh7); format: toxicity, cell-based, Huh-7; conditions: Huh7 cells (hepatocellular carcinoma cell line)
Plasmodium falciparum [3] = assay: NOVARTIS: Inhibition of Plasmodium falciparum W2 (drug-resistant) proliferation in erythrocyte-based infection assay; format: functional, organism-based; conditions: Plasmodium falciparum, W2; read-out: EC50

| SMILES | EC50 (Plasmodium falciparum [1]) [µM] | CC50 [2] [µM] | EC50 (Plasmodium falciparum [3]) [µM] |
| --- | --- | --- | --- |
| OC1(c2ccc3ccccc3c2)c2c(c3ccccc3c3ccccc23)C2=NCCN21 (centres undefined) | 0.252 | > 10 | 0.281 |
| OCCc1cn(-c2ccccc2)c2ccccc12 | 0.717 | > 10 | 0.226 |
| COc1cccc(Nc2nc(NCC3CCCO3)c3ccccc3n2)c1 (centres undefined) | 0.23 | 7.67 | 0.286 |
| COc1ccc(CNC(=O)C(Cc2c[nH]c3ccccc23)N2CCS(=O)(=O)CC2)cc1 (centres undefined) | 0.851 | 8.04 | 0.784 |
| O=C1NC(=S)N/C1=C/c1ccc(C(F)(F)F)cc1 | > 1.03 | > 2.88 | > 1.11 |
| COc1ccc(/C=C2\SC(=O)NC2=Nc2ccccc2)c(OC)c1 | 1.1 | > 10 | 1.01 |
| O=C(Nc1ccc(F)c(F)c1)c1ccccc1[N+](=O)[O-] | > 0.903 | > 10 | 1.06 |
| COc1cc(OC)cc(C(=O)Nc2cc(C(=O)N3CCC(Cc4ccccc4)CC3)ccc2N2CC3CC(C2)c2cccc(=O)n2C3)c1 (centres undefined) | 1.87 | 50.3 | 0.548 |
| CC(=O)Nc1ccc(S(=O)(=O)NC2C(C)(C)C3CC[C@]2(C)C3)cc1 (some centres undefined) | > 1.25 | > 10 | > 0.184 |
| N#Cc1ccc(N2CCN(C(=O)c3ccc(F)cc3Cl)CC2)cc1 | 0.155 | > 10 | 0.0675 |
| CC(=O)c1ccc(N2CCN(Cc3cc(-c4ccnc5cc(Cl)ccc45)ccc3O)CC2)cc1 | 2.81 | > 100 | 0.228 |
| c1ccc(-c2cc(N3CCC4(CC3)OCCO4)nc(-c3ccccn3)n2)nc1 | 0.42 | > 10 | 0.223 |
| CC(C)CN(CC(=O)Nc1cc(C(C)(C)C)nn1-c1ccccc1)C(=O)c1cc(Cl)cc(Cl)c1 | 1.23 | > 10 | < 0.0167 |
| CCNc1nc(NC(C)(C)C)nc(N2CCCC2)n1 | 1.45 | > 100 | 0.802 |
| O=C(O)c1c(F)cccc1Cl | > 7.73 | > 100 | 2.85 |
| O=C(NC(c1ccccc1)c1ccccc1)N(Cc1ccccc1)CC(O)CN(CCN1CCOCC1)S(=O)(=O)Cc1ccccc1 (centres undefined) | 0.115 | > 6.82 | 0.162 |
| COC(=O)C1=C(C)NC2=C(C(=O)CC(c3ccccc3)C2)C1c1ccc(Cl)cc1 (centres undefined) | 1.22 | > 100 | 0.333 |

| SMILES | EC50 (Plasmodium falciparum [1]) [µM] | CC50 [2] [µM] | EC50 (Plasmodium falciparum [3]) [µM] |
| --- | --- | --- | --- |
| CC1=NN(c2ccc(C(=O)O)cc2)C(=O)/C1=C\c1ccc([N+](=O)[O-])o1 | > 1.25 | > 10 | > 0.839 |
| CC(C)(C)CC(C)(C)c1ccc(O)c(CN2CCN(CCC#N)CC2)c1 | 1.29 | > 100 | 0.272 |
| CCN(CC)S(=O)(=O)c1ccc(C(=O)c2c(C)c(C(=O)C(F)(F)F)c3ccccn23)cc1 | 3.15 | > 100 | 2.02 |
| COc1ccccc1NC(=O)c1cnn(-c2ccccc2)c1-n1cccc1 | > 0.119 | > 10 | 0.494 |
| Cc1ccc(C2Sc3ccccc3NC3=C2C(=O)c2ccccc23)cc1 (centres undefined) | 0.249 | 68.6 | 0.0464 |
| CCOC(=O)N1CCN(C(=O)CCCCn2c(=S)[nH]c3ccsc3c2=O)CC1 | > 1.13 | > 10 | > 1.25 |
| CC(C)CNc1nc(NCCCn2ccnc2)ncc1C(=O)NCCc1ccccc1 | 0.274 | > 10 | 0.696 |
| COc1ccc(/C=C(\NC(=O)c2ccccc2Br)C(=O)N2CC3CC(C2)c2cccc(=O)n2C3)cc1OC (centres undefined) | > 0.764 | > 10 | > 1.25 |
| Cc1ccn2c(NC(C)(C)CC(C)(C)C)c(-c3ccccc3OC(=O)C3CCCCC3)nc2c1 | 0.654 | > 10 | 0.0187 |
| CC1=C(CO)C(=O)O[C@@H]([C@@H](C)[C@H]2CC[C@H]3[C@@H]4C[C@H]5O[C@]56[C@@H](O)C=CC(=O)[C@]6(C)C4CC[C@]23C)C1 (some centres undefined) | 4.97 | 3.63 | 1.68 |
| CC(C)CN1C(=O)c2ccccc2C(C(=O)Nc2cc(F)ccc2F)C1c1cccs1 (centres undefined) | 0.26 | > 100 | 0.15 |
| COc1cccc(CCOc2ccc3c(c2)C(=O)N(C(CC(C)C)C(=O)NC2CCN(Cc4ccccc4)CC2)[C@@H](Cc2ccc(O)cc2)C(=O)N3)c1 (some centres undefined) | 0.502 | > 10 | 0.159 |
| O=c1[nH]c(SCC(O)c2ccc(Cl)c(Cl)c2)nc2sc3ccccc3c12 (centres undefined) | 0.663 | > 10 | 0.124 |
| COCCNC(=O)[C@@H]1C[C@@H](NCCC2=C(C)CCCC2(C)C)CN1C(C)C | > 12.5 | > 100 | 4.3 |
| Cc1ccc(-c2cc(C(F)(F)F)n3nc(C(=O)Nc4cccc(Cl)c4Cl)cc3n2)cc1 | > 1.25 | > 10 | > 0.321 |
| CCOC(=O)c1c(NC(C)=O)sc2c(O)c(CNC3CCCCC3)ccc12 | 0.0805 | > 100 | 0.0214 |
